According to patent publication US20080214563A1, “Benzimidazole Thiophene Compounds As Plk Modulators” (priority 2005, published 2008):

Legend:
Assay type in all cases: cell-based
H1299 = assay: Cell-Titer Glo Cell Growth Inhibition Assay, H1299; conditions: Homo sapiens, NCI-H1299, CellTiter-Glo, 72 h, read-out: CTG H1299 IC50
Experimental: (§1) A549-L (human lung), BT474 (human breast), Colo 205 (human colon), H1299 (human lung), Hela (human cervix), HCT-116 (human colon), HN5 (human head and neck), HT29 (human colon), LNCap (human prostate), MCF7 (human breast), MDA-MB468 (human breast), MX-1 (human breast), RPMI 8226 (human peripheral blood), SKOV3 (human ovary) and P388 (murine leukemia) cell lines were cultured in RPMI1640 containing 10% fetal bovine serum at 37° C. in a 5% CO2 incubator. Cell lines were split into T75 flasks (Falcon #353136) two to three days prior to assay set up at density which yields approximately 70-80% confluency at time of harvest for assay. Cells were harvested using 0.25% trypsin with EDTA (Glibco/Invitrogen #25200-056), Cell counts were performed on cell suspensions using Trypan Blue exclusion staining, cells were then plated in 105 uL of culture media per well at the following densities in 96 well Costar #3916 black flat bottom plates: All human cell lines were plated at 500 cells/well. P388 were plated at 250 cells/well. All plates were placed at 5% CO2 37° C. overnight and then test compounds were added the following day. One plate of each cell type is treated with CellTiter-Glo (Promega #G7573) for a day 0 proliferation measurement and read as described below. […]

RPMI 8226 = assay: Cell-Titer Glo Cell Growth Inhibition Assay, RPMI 8226; conditions: Homo sapiens, CellTiter-Glo, 72 h, read-out: CTG RPMI 8226 IC50
Experimental: as §1

HN5 = assay: Cell-Titer Glo Cell Growth Inhibition Assay, HN5; conditions: Homo sapiens, CellTiter-Glo, 72 h, read-out: CTG HN5 IC50
Experimental: as §1

BT474 = assay: Cell-Titer Glo Cell Growth Inhibition Assay, BT474; conditions: Homo sapiens; CellTiter-Glo, 72 h, BT 474; read-out: CTG BT 474 IC50
Experimental: as §1

LNCap = assay: Cell-Titer Glo Cell Growth Inhibition Assay, LNCap; conditions: Homo sapiens, CellTiter-Glo, 72 h, read-out: CTG LNCap IC50
Experimental: as §1

MDA-MB468 = assay: Cell-Titer Glo Cell Growth Inhibition Assay, MDA-MB468; conditions: Homo sapiens, MDA-MB-468, CellTiter-Glo, 72 h, read-out: CTG MDA-MB468 IC50
Experimental: as §1

Hela = assay: Cell-Titer Glo Cell Growth Inhibition Assay, Hela; conditions: Homo sapiens, CellTiter-Glo, 72 h, read-out: CTG Hela IC50
Experimental: as §1

MCF7 = assay: Cell-Titer Glo Cell Growth Inhibition Assay, MCF7; conditions: Homo sapiens, CellTiter-Glo, 72 h, read-out: CTG MCF7 IC50
Experimental: as §1

Measured: IC50

C[C@@H](Oc1cc(-n2cnc3cc(-c4cnn(C)c4)ccc32)sc1C(N)=O)c1ccccc1Cl [Example 9, 3-{[(1R)-1-(2-Chlorophenyl)ethyl]oxy}-5-[5-(1-methyl-1H-pyrazol-4-yl)-1H-benzimidazol-1-yl]-2-thiophenecarboxamide]
< 0.1 µM: all assays above
